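Exposure lasted 48 hours, with cells grown in 96-well plates and compounds tested at five concentrations. Definition used: TGI = concentration required for complete inhibition of growth.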
How the values were obtained:
Assay in all cases: inhibition of tumour cell growth, NCI panel, 48 h
MOLT-4 leukemia = system: MOLT-4 leukemia
KM12 colon = system: KM12 colon
A498 renal = system: A498 renal
UACC-62 melanoma = system: UACC-62 melanoma
SR leukemia = system: SR leukemia
MALME-3M melanoma = system: MALME-3M melanoma
SNB-75 CNS = system: SNB-75 CNS
HOP-92 NSCLC = system: HOP-92 NSCLC
SK-OV-3 ovarian = system: SK-OV-3 ovarian
OVCAR-8 ovarian = system: OVCAR-8 ovarian
IGROV1 ovarian = system: IGROV1 ovarian
MDA-N = system: MDA-N
RXF 393 renal = system: RXF 393 renal

CCC1OC2C(CC=C(C)C)=C3OC(C)(O)C(C)(CC)C(OC(C)=O)C3=C3OC(=O)C=C1C32 (configuration not stated)
TGI (MOLT-4 leukemia): 77.5 µM | TGI (KM12 colon): 50 µM | TGI (A498 renal): > 100 µM | TGI (UACC-62 melanoma): 42.1 µM | TGI (SR leukemia): > 100 µM | TGI (MALME-3M melanoma): 49.3 µM | TGI (SNB-75 CNS): 52.1 µM | TGI (HOP-92 NSCLC): > 100 µM | TGI (SK-OV-3 ovarian): > 100 µM | TGI (OVCAR-8 ovarian): > 100 µM | TGI (IGROV1 ovarian): 69.6 µM

Cc1ccc(NC(=O)c2cc(S(=O)(=O)Nc3n[nH]c(=O)[nH]3)c(SSc3cc(Cl)c(C(=O)Nc4ccc(C)cc4)cc3S(=O)(=O)Nc3n[nH]c(=O)[nH]3)cc2Cl)cc1
TGI (MOLT-4 leukemia): > 100 µM | TGI (KM12 colon): > 100 µM | TGI (A498 renal): > 100 µM | TGI (UACC-62 melanoma): > 100 µM | TGI (SR leukemia): > 100 µM | TGI (MALME-3M melanoma): > 100 µM | TGI (SNB-75 CNS): > 100 µM | TGI (HOP-92 NSCLC): > 100 µM | TGI (MDA-N): > 100 µM | TGI (SK-OV-3 ovarian): > 100 µM | TGI (OVCAR-8 ovarian): > 100 µM | TGI (IGROV1 ovarian): > 100 µM

CCOP1(=O)C=C(C)C(Cl)=C(C)C1 (configuration not stated)
TGI (MOLT-4 leukemia): 76.1 µM | TGI (KM12 colon): 34.5 µM | TGI (UACC-62 melanoma): 33.9 µM | TGI (SR leukemia): > 100 µM | TGI (SNB-75 CNS): 69.7 µM | TGI (RXF 393 renal): 77.2 µM | TGI (HOP-92 NSCLC): 68.3 µM | TGI (SK-OV-3 ovarian): > 100 µM | TGI (OVCAR-8 ovarian): > 100 µM | TGI (IGROV1 ovarian): > 100 µM

CC12CCC(=O)N1c1ccc([N+](=O)[O-])cc1N2 (configuration not stated)
TGI (MOLT-4 leukemia): > 100 µM | TGI (KM12 colon): > 100 µM | TGI (A498 renal): > 100 µM | TGI (UACC-62 melanoma): > 100 µM | TGI (SR leukemia): > 100 µM | TGI (MALME-3M melanoma): > 100 µM | TGI (SNB-75 CNS): > 100 µM | TGI (RXF 393 renal): > 100 µM | TGI (SK-OV-3 ovarian): > 100 µM | TGI (OVCAR-8 ovarian): > 100 µM | TGI (IGROV1 ovarian): > 100 µM

O=C1Cc2c([nH]c3ccc(Br)cc23)-c2cc(O)c(O)cc2N1
TGI (MOLT-4 leukemia): > 100 µM | TGI (KM12 colon): > 100 µM | TGI (A498 renal): > 100 µM | TGI (UACC-62 melanoma): > 100 µM | TGI (SNB-75 CNS): > 100 µM | TGI (RXF 393 renal): > 100 µM | TGI (HOP-92 NSCLC): > 100 µM | TGI (MDA-N): > 100 µM | TGI (SK-OV-3 ovarian): > 100 µM | TGI (OVCAR-8 ovarian): > 100 µM

CC1(C)CC(=O)C(/C(=N/NC(=S)NN)C(=O)Nc2nc3ccc([N+](=O)[O-])cc3s2)C(=O)C1
TGI (MOLT-4 leukemia): > 100 µM | TGI (KM12 colon): > 100 µM | TGI (A498 renal): > 100 µM | TGI (UACC-62 melanoma): > 100 µM | TGI (SR leukemia): > 100 µM | TGI (MALME-3M melanoma): > 100 µM | TGI (SNB-75 CNS): > 100 µM | TGI (RXF 393 renal): > 100 µM | TGI (HOP-92 NSCLC): > 100 µM | TGI (SK-OV-3 ovarian): > 100 µM | TGI (OVCAR-8 ovarian): > 100 µM | TGI (IGROV1 ovarian): > 100 µM

CCOC(=O)NNC(=O)NCc1cccc(CNC(=O)NNC(=O)OCC)c1
TGI (MOLT-4 leukemia): > 100 µM | TGI (KM12 colon): > 100 µM | TGI (A498 renal): > 100 µM | TGI (UACC-62 melanoma): > 100 µM | TGI (SR leukemia): > 100 µM | TGI (MALME-3M melanoma): > 100 µM | TGI (SNB-75 CNS): > 100 µM | TGI (RXF 393 renal): > 100 µM | TGI (MDA-N): > 100 µM | TGI (SK-OV-3 ovarian): > 100 µM | TGI (OVCAR-8 ovarian): > 100 µM

O=C(/C=C/c1ccccc1)Oc1ccc(C(=O)/C=C/c2ccc(Cl)cc2)cc1
TGI (MOLT-4 leukemia): > 100 µM | TGI (KM12 colon): > 100 µM | TGI (A498 renal): > 100 µM | TGI (UACC-62 melanoma): > 100 µM | TGI (SR leukemia): > 100 µM | TGI (MALME-3M melanoma): > 100 µM | TGI (SNB-75 CNS): > 100 µM | TGI (RXF 393 renal): > 100 µM | TGI (MDA-N): > 100 µM | TGI (SK-OV-3 ovarian): > 100 µM | TGI (OVCAR-8 ovarian): > 100 µM | TGI (IGROV1 ovarian): > 100 µM

COc1cc(O)c2c(=O)c(O)c(-c3ccc(O)c(OC)c3)oc2c1
TGI (MOLT-4 leukemia): > 25 µM | TGI (KM12 colon): > 100 µM | TGI (A498 renal): > 100 µM | TGI (MALME-3M melanoma): > 100 µM | TGI (SNB-75 CNS): > 20.5 µM | TGI (MDA-N): > 100 µM | TGI (OVCAR-8 ovarian): > 100 µM | TGI (IGROV1 ovarian): > 100 µM

O=CNCNCCO
TGI (MOLT-4 leukemia): > 100 µM | TGI (A498 renal): > 100 µM | TGI (UACC-62 melanoma): > 100 µM | TGI (SR leukemia): > 100 µM | TGI (MALME-3M melanoma): > 100 µM | TGI (SNB-75 CNS): > 100 µM | TGI (RXF 393 renal): > 100 µM | TGI (HOP-92 NSCLC): > 100 µM | TGI (SK-OV-3 ovarian): > 100 µM | TGI (OVCAR-8 ovarian): > 100 µM | TGI (IGROV1 ovarian): > 100 µM

Oc1ccc2cc(Br)ccc2c1-c1c(O)ccc2ccc(Br)cc12
TGI (MOLT-4 leukemia): 20.4 µM | TGI (KM12 colon): 18.9 µM | TGI (A498 renal): 32.1 µM | TGI (UACC-62 melanoma): 31 µM | TGI (SR leukemia): 52.4 µM | TGI (MALME-3M melanoma): 26.6 µM | TGI (MDA-N): 24.6 µM | TGI (SK-OV-3 ovarian): 24.6 µM | TGI (OVCAR-8 ovarian): 30.4 µM | TGI (IGROV1 ovarian): 20.7 µM

O=C(c1cccs1)N(C(=S)OCCOc1ccccc1)c1ccccc1
TGI (MOLT-4 leukemia): 67.9 µM | TGI (KM12 colon): 81 µM | TGI (A498 renal): 50.5 µM | TGI (UACC-62 melanoma): 37.7 µM | TGI (MALME-3M melanoma): 69.9 µM | TGI (SNB-75 CNS): 54.7 µM | TGI (RXF 393 renal): 51.9 µM | TGI (HOP-92 NSCLC): 45.9 µM | TGI (MDA-N): 33.4 µM | TGI (SK-OV-3 ovarian): 73.5 µM | TGI (OVCAR-8 ovarian): 87.8 µM | TGI (IGROV1 ovarian): 79.2 µM

C/C(=C\CBr)CCC(Br)C(C)(C)Cl (configuration not stated)
TGI (MOLT-4 leukemia): > 100 µM | TGI (KM12 colon): > 100 µM | TGI (UACC-62 melanoma): > 100 µM | TGI (SR leukemia): > 100 µM | TGI (MALME-3M melanoma): > 100 µM | TGI (SNB-75 CNS): > 100 µM | TGI (RXF 393 renal): > 100 µM | TGI (HOP-92 NSCLC): > 100 µM | TGI (SK-OV-3 ovarian): > 100 µM | TGI (OVCAR-8 ovarian): > 100 µM | TGI (IGROV1 ovarian): > 100 µM

COC(=O)c1ccc(S)c(S(=O)(=O)Nc2n[nH]c(N)n2)c1
TGI (MOLT-4 leukemia): > 100 µM | TGI (KM12 colon): > 100 µM | TGI (A498 renal): > 100 µM | TGI (UACC-62 melanoma): > 100 µM | TGI (SR leukemia): > 100 µM | TGI (MALME-3M melanoma): > 100 µM | TGI (HOP-92 NSCLC): > 100 µM | TGI (MDA-N): > 100 µM | TGI (OVCAR-8 ovarian): > 100 µM | TGI (IGROV1 ovarian): > 100 µM

CN(C)C(=NCc1ccccc1)NC#N
TGI (KM12 colon): > 100 µM | TGI (UACC-62 melanoma): > 100 µM | TGI (HOP-92 NSCLC): > 100 µM | TGI (SK-OV-3 ovarian): > 100 µM | TGI (OVCAR-8 ovarian): > 100 µM | TGI (IGROV1 ovarian): > 100 µM

NS(=O)(=O)c1nnc(NS(=O)(=O)C(F)(F)F)s1
TGI (MOLT-4 leukemia): > 100 µM | TGI (KM12 colon): > 100 µM | TGI (A498 renal): > 100 µM | TGI (UACC-62 melanoma): > 100 µM | TGI (SR leukemia): > 100 µM | TGI (MALME-3M melanoma): > 100 µM | TGI (SNB-75 CNS): > 100 µM | TGI (RXF 393 renal): > 100 µM | TGI (HOP-92 NSCLC): > 100 µM | TGI (SK-OV-3 ovarian): > 100 µM | TGI (OVCAR-8 ovarian): > 100 µM

O=[N+]([O-])/C(C(Cl)=C(Cl)Cl)=C(/Cl)SCc1ccccc1
TGI (MOLT-4 leukemia): 1.25 µM | TGI (KM12 colon): 34.6 µM | TGI (A498 renal): 40.8 µM | TGI (UACC-62 melanoma): 14.4 µM | TGI (MALME-3M melanoma): 6.68 µM | TGI (SNB-75 CNS): 24.9 µM | TGI (RXF 393 renal): 9.35 µM | TGI (HOP-92 NSCLC): 9.01 µM | TGI (MDA-N): 4.23 µM | TGI (SK-OV-3 ovarian): 35.6 µM | TGI (OVCAR-8 ovarian): 3.04 µM | TGI (IGROV1 ovarian): 35.7 µM

Nc1ccc2c(c1)nc1n2C(c2c(F)cccc2F)SC1 (configuration not stated)
TGI (MOLT-4 leukemia): > 100 µM | TGI (KM12 colon): > 100 µM | TGI (A498 renal): > 100 µM | TGI (UACC-62 melanoma): > 100 µM | TGI (SR leukemia): > 100 µM | TGI (MALME-3M melanoma): > 100 µM | TGI (SNB-75 CNS): > 100 µM | TGI (RXF 393 renal): > 100 µM | TGI (MDA-N): > 100 µM | TGI (SK-OV-3 ovarian): > 100 µM | TGI (OVCAR-8 ovarian): > 100 µM | TGI (IGROV1 ovarian): > 100 µM

COc1ccc(/C=N/n2c(C)n[nH]c2=O)c(OC)c1
TGI (MOLT-4 leukemia): > 100 µM | TGI (KM12 colon): > 100 µM | TGI (A498 renal): > 100 µM | TGI (UACC-62 melanoma): > 100 µM | TGI (MALME-3M melanoma): > 100 µM | TGI (SNB-75 CNS): > 100 µM | TGI (MDA-N): > 100 µM | TGI (SK-OV-3 ovarian): > 100 µM | TGI (OVCAR-8 ovarian): > 100 µM

COc1c(=O)cc2cc[nH]c3ccn(C)c1c23
TGI (MOLT-4 leukemia): > 100 µM | TGI (KM12 colon): > 100 µM | TGI (A498 renal): > 100 µM | TGI (UACC-62 melanoma): > 100 µM | TGI (SR leukemia): > 100 µM | TGI (SNB-75 CNS): > 100 µM | TGI (RXF 393 renal): > 100 µM | TGI (MDA-N): > 100 µM | TGI (SK-OV-3 ovarian): > 100 µM | TGI (OVCAR-8 ovarian): > 100 µM | TGI (IGROV1 ovarian): > 100 µM
